The values that follow come from ChEMBL document CHEMBL6092157, “PET imaging assist investigation of HDAC6 expression change in MDD and evaluating antidepressant efficacy of a newly developed HDAC6 inhibitor” (Eur J Med Chem, 2024).

Data set [1] in a line: Cmax in C57BL/6 mouse at 20 mg/kg, iv by LC-MS/MS analysis. The class given is ADME, organism-based. The conditions noted are these: in vivo.
The subject of data set [2] is Mus musculus. Briefly: Antidepressant activity in chronic unpredictable mild stress C57BL/6 mouse model assessed as longer duration spent in central area at 20 mg/kg, ip qd for 21 days by open field test. The class given is functional, organism-based. Particulars: time 21.0 day.
Data set [3] concerns the target T1, Protein deacetylase HDAC6 (Mus musculus) (UniProt Q9Z2V5).
T1 sequence (whole entry): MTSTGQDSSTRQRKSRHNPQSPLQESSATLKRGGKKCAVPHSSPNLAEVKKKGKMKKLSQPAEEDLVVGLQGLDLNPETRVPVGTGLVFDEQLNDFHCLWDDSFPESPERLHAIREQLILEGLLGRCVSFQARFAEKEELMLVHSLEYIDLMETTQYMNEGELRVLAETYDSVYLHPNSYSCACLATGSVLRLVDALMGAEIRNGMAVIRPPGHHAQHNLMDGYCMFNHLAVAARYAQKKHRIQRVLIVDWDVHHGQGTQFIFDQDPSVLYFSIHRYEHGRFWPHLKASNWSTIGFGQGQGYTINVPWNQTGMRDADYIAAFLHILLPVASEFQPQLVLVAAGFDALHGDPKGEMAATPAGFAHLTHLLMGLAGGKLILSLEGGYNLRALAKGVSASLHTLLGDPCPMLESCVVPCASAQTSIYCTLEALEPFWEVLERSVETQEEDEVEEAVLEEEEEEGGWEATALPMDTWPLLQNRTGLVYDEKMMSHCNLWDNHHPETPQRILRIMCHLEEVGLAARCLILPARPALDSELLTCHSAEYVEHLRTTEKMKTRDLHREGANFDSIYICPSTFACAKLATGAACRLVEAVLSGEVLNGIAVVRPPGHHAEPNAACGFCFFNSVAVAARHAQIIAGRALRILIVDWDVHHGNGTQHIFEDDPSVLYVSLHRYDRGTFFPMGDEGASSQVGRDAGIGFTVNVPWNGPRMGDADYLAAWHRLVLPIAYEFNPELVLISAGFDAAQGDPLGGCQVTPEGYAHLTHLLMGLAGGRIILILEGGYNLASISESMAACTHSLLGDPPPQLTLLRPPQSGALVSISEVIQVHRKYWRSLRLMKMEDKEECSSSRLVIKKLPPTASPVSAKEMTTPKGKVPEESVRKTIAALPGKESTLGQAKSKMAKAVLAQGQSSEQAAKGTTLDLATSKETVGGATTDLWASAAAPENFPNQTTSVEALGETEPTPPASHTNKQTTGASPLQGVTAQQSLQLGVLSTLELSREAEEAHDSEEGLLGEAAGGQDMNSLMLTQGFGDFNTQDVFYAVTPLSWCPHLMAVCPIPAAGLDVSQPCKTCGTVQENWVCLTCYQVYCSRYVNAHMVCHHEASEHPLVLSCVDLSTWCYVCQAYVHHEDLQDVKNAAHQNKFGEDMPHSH
Briefly: In vivo inhibition of HDAC6 in brain of chronic unpredictable mild stress C57BL/6 mouse model by IHC analysis. The class given is functional, organism-based.

Data set [4] can be described thus: MRT (0 to infinity) in C57BL/6 mouse at 20 mg/kg, ip by LC-MS/MS analysis. Particulars: in vivo. The class given is ADME, organism-based.
Data set [5] deals with Mus musculus. The data set can be described thus: Antidepressant activity in chronic unpredictable mild stress C57BL/6 mouse model assessed as reduction in immobility time at 20 mg/kg, ip qd for 21 days by tail suspension test. The class given is functional, organism-based. Particulars: time 21.0 day.
Data set [6] can be described thus: Half life in C57BL/6 mouse at 20 mg/kg, ip by LC-MS/MS analysis. The class given is ADME, organism-based. The conditions noted are these: in vivo.
Data set [7] is described as follows: MRT (0 to infinity) in C57BL/6 mouse at 20 mg/kg, iv by LC-MS/MS analysis. Type of data set: ADME, organism-based. The conditions noted are these: in vivo.
Data set [8] is described as follows: Ratio of drug concentration in brain to plasma of C57BL/6 mouse at 1 mg/kg, ip measured for 1 hr by LC-MS/MS analysis. Type of data set: ADME, organism-based. Particulars: read-out: BPR.
The nature of data set [9]: Drug concentration in plasma of C57BL/6 mouse at 1 mg/kg, ip measured for 4 hrs by LC-MS/MS analysis. The class given is ADME, organism-based.
Data set [10] is described as follows: Ratio of drug concentration in brain to plasma of C57BL/6 mouse at 1 mg/kg, ip measured for 4 hrs by LC-MS/MS analysis. The conditions noted are these: read-out: BPR. Type of data set: ADME, organism-based.
Data set [11] is described as follows: Toxicity in chronic unpredictable mild stress C57BL/6 mouse model assessed as damage in organs at 20 mg/kg, ip qd for 21 days by H and E staining based analysis. Type of data set: organism-based. The conditions noted are these: in vivo, 504 h, time 21 day.
Data set [12] is described as follows: Toxicity in chronic unpredictable mild stress C57BL/6 mouse model assessed as animal death at 20 mg/kg, ip qd for 21 days. Type of data set: organism-based. The conditions noted are these: in vivo, 504 h, time 21 day.
Data set [13] is described as follows: Cmax in C57BL/6 mouse at 20 mg/kg, ip by LC-MS/MS analysis. Particulars: in vivo. The class given is ADME, organism-based.
Data set [14] is described as follows: Ratio of drug concentration in brain to plasma of C57BL/6 mouse at 1 mg/kg, ip measured for 0.5 hrs by LC-MS/MS analysis. Type of data set: ADME, organism-based. The conditions noted are these: read-out: BPR.
The nature of data set [15]: AUC (0 to infinity) in C57BL/6 mouse at 20 mg/kg, iv by LC-MS/MS analysis. The conditions noted are these: in vivo. The class given is ADME, organism-based.
The subject of data set [16] is Mus musculus. Briefly: Antidepressant activity in chronic unpredictable mild stress C57BL/6 mouse model assessed as shorter feeding latency to eat at 20 mg/kg, ip qd for 21 days by novelty-suppressed feeding test. The class given is functional, organism-based. The conditions noted are these: time 21.0 day.
Data set [17] can be described thus: Toxicity in chronic unpredictable mild stress C57BL/6 mouse model assessed as histomorphological changes at 20 mg/kg, ip qd for 21 days. The class given is organism-based. Particulars: in vivo, 504 h, time 21 day.
The nature of data set [18]: Drug concentration in brain of C57BL/6 mouse at 1 mg/kg, ip measured for 4 hrs by LC-MS/MS analysis. Type of data set: ADME, organism-based. Particulars: read-out: Ct.
Data set [19] can be described thus: Drug concentration in brain of C57BL/6 mouse at 1 mg/kg, ip measured for 0.5 hrs by LC-MS/MS analysis. Type of data set: ADME, organism-based. The conditions noted are these: read-out: Ct.
Data set [20] can be described thus: Drug concentration in plasma of C57BL/6 mouse at 1 mg/kg, ip measured for 1 hr by LC-MS/MS analysis. The class given is ADME, organism-based.
Data set [21] can be described thus: Half life in C57BL/6 mouse at 20 mg/kg, iv by LC-MS/MS analysis. Type of data set: ADME, organism-based. Particulars: in vivo.
The nature of data set [22]: AUC (0 to infinity) in C57BL/6 mouse at 20 mg/kg, ip by LC-MS/MS analysis. The class given is ADME, organism-based. Particulars: in vivo.
A short description of data set [23]: […] bioavailability in C57BL/6 mouse at 20 mg/kg by LC-MS/MS analysis. The conditions noted are these: in vivo. The class given is ADME, organism-based.
Data set [24] in a line: Drug concentration in plasma of C57BL/6 mouse at 1 mg/kg, ip measured for 0.5 hrs by LC-MS/MS analysis. The class given is ADME, organism-based.
Data set [25] is described as follows: Tmax in C57BL/6 mouse at 20 mg/kg, ip by LC-MS/MS analysis. The class given is ADME, organism-based. The conditions noted are these: in vivo.
Data set [26] is described as follows: Toxicity in chronic unpredictable mild stress C57BL/6 mouse model assessed as abnormality in organs at 20 mg/kg, ip qd for 21 days by H and E staining based analysis. The conditions noted are these: in vivo, 504 h, time 21 day. The class given is organism-based.
The subject of data set [27] is Mus musculus. The data set can be described thus: Antidepressant activity in chronic unpredictable mild stress C57BL/6 mouse model assessed as longer duration spent in central area of open field at 20 mg/kg, ip qd for 21 days by open field test. Particulars: time 21.0 day. The class given is functional, organism-based.
Data set [28] is filed under the species Mus musculus. Briefly: Upregulation of tubulin acetylation in brain of chronic unpredictable mild stress C57BL/6 mouse model by IHC analysis. Type of data set: functional, organism-based.
The nature of data set [29]: Drug concentration in brain of C57BL/6 mouse at 1 mg/kg, ip measured for 1 hr by LC-MS/MS analysis. The class given is ADME, organism-based. The conditions noted are these: read-out: Ct.
A short description of data set [30]: Drug uptake in liver of chronic unpredictable mild stress C57BL/6 mouse model by PET imaging analysis. The conditions noted are these: in vivo. Type of data set: ADME, tissue-based.
Data set [31] can be described thus: Drug uptake in hippocampus of chronic unpredictable mild stress C57BL/6 mouse model by PET imaging analysis. The conditions noted are these: in vivo. Type of data set: ADME, tissue-based.
A short description of data set [32]: Drug uptake in hypothalamus of chronic unpredictable mild stress C57BL/6 mouse model by PET imaging analysis. Type of data set: ADME, tissue-based. The conditions noted are these: in vivo.
A short description of data set [33]: Drug uptake in heart of chronic unpredictable mild stress C57BL/6 mouse model by PET imaging analysis. Type of data set: ADME, tissue-based. The conditions noted are these: in vivo.
Data set [34] is described as follows: Drug uptake in striatum of chronic unpredictable mild stress C57BL/6 mouse model by PET imaging analysis. Type of data set: ADME, tissue-based. The conditions noted are these: in vivo.
A short description of data set [35]: Drug uptake in spleen of chronic unpredictable mild stress C57BL/6 mouse model by PET imaging analysis. Type of data set: ADME, tissue-based. The conditions noted are these: in vivo.
The nature of data set [36]: Drug uptake in lung of chronic unpredictable mild stress C57BL/6 mouse model by PET imaging analysis. Type of data set: ADME, tissue-based. The conditions noted are these: in vivo.
Data set [37] in a line: Drug uptake in kidney of chronic unpredictable mild stress C57BL/6 mouse model by PET imaging analysis. The class given is ADME, tissue-based. The conditions noted are these: in vivo.

The source made the active and inactive calls.

One may read the Cmax as the highest concentration seen after dosing. Broadly, the MRT inf is a mean duration of stay, worked out from the concentration-time curve. What is called half-life is the time needed for the level to fall by half in the phase considered. As usually defined, the AUC(0-inf) is the area under the concentration-time curve extrapolated to infinity. A lower AUC(0-inf) goes with less exposure. By bioavailability is commonly meant dose-corrected exposure relative to a reference, in per cent. Read a high bioavailability as good availability. By Tmax is commonly meant the time from dosing to the highest level. Regarding `Cc1ccc2c(n1)N(Cc1ccc(C(=O)NO)cc1F)CCC2`, the Cmax in [1] stood at 3600 ng/mL; in [13] it was 1510 ng/mL. The outcome in the data set with Mus musculus [2], in the data set with Mus musculus [5], with Mus musculus [16], in the data set with Mus musculus [27] and in the data set filed under Mus musculus [28] was Active. The inhibition entry in data set [3] is “Active”. Besides, the MRT inf in [4] came out at 24 min; in data set [7] it was 17.4 min. In addition, the half-life in data set [6] is 54.6 min; in data set [21], 33 min. Further, the Kp at 1 h in data set [8] came out at 3.9. The values for the concentration at 4 h in data set [9] and in data set [18] were 0.21 ng/mL and 0.42 ng/mL, respectively. Further, in [10], the Kp at 4 h turned out to be 2.1. In addition, the Activity entry in data set [11], in data set [12], in [17] and in data set [26] was “Non-toxic” throughout. The Kp at 0.5 h in data set [14] amounted to 7.9. Further, the AUC(0-inf) in [15] came out at 1090 ng·h/mL; in data set [22] it was 522 ng·h/mL. In addition, the concentration at 0.5 h in data set [19] is 26.5 ng/mL; in data set [24], 3.3 ng/mL. Besides, the concentration at 1 h in data set [20] worked out at 2.6 ng/mL; in data set [29], 10.3 ng/mL. The bioavailability in data set [23] stood at 47.7%. Moreover, the time of peak concentration (Tmax) in data set [25] was found to be 4.98 min.

On to `CN(Cc1ccc(C(=O)NO)cc1[18F])CC12CC3CC(CC(C3)C1)C2`, for which the Drug uptake entry in data set [30], in data set [31], in [32], in [33], in data set [34] and in [35] was “Active” throughout. In addition, the Drug uptake entry in [36] and in data set [37] was “Active” each time.
